Here are results for three compounds from US20170304386A1, “METHOD FOR INHIBITING SURVIVAL, TUMORIGENESIS AND METASTASIS OF CANCER CELLS AND/OR CANCER STEM CELLS” (priority 2014, published 2017).

The subject of the test is S727 phosphorylation of STAT3. Nature of the test: Western blot analysis of STAT3 S727 phosphorylation in CCS cells. The format is cell-based, human. The procedure:
FIGS. 7a-7m show the PP2A regulates STAT3 activation at S727 and mediates suspension survival ability in TICs. […] The results are expressed as mean±SD of three independent experiments. Asterisks indicate significant differences determined by student's t-test. Bar=20 μm.
Cells were lysed and protein was extracted using M-PER (Pierce, Rockford, Ill.) plus protease inhibitor cocktail (Pierce), and the protein concentrations were determined by the BCA assay (Pierce). Aliquots of protein lysates were separated on SDS-10% polyacrylamide gels and transferred onto poly-vinylidenedifluoride (PVDF) membrane, which was blocked with 5% milk (Bio-Rad, Richmond, Calif.) in TBST. The membrane was then hybridized with primary antibodies followed by corresponding secondary antibodies, and then detected using a chemiluminescence assay (Millipore, Billerica, Mass.). Membranes were exposed to X-ray film to visualize the bands (Amersham Pharmacia Biotech, Piscataway, N.J.). Antibodies against pSTAT3 (S727) (1:1000), pSTAT3 (Y705) (1:1000), STAT3 (1:2000), PP2A C subunit (1:2000), pAkt (S473) (1:1000), β-tubulin (1:2000), Flag (1:2000), pAkt (T308) (1:1000), Akt (1:2000), ERK (1:2000), pP38 (T180 and Y182) (1:1000), P38 (1:2000), pJNK (1:1000), and pmTOR (S2448) (1:1000) were purchased from Cell Signaling Technologies. Antibodies against pPP2A (Y307) (1:2000), Oct4 (1:500), Nanog (1:500), Histone H1 (1:1000), and Sox2 (1:500) were purchased from Santa Cruz Biotechnology Inc. Antibodies against pFAK (Y397) (1:1000) were purchased from GeneTex (San Antonio, Tex.). Antibody against Col17a1 was purchased from Abcam. Antibody against Laminin y2 (1:1000) was purchased from Chemicon (Temecula, Calif.). Antibody against cleaved-caspase 3 (1:1000) was purchased from Epitomics (Burlingame, Calif.). Antibody against pERK (1:1000) was purchased from Biosource (Camerillo, Calif.).

Setting [1] is: CCS bulk cancer cells, 0, 0.1, 0.5, 1 nM OA for 1 hour or 0, 5, 10, 15 nM CA for 30 min.

Take `C=C1[C@@H](O)[C@@H]2O[C@]3(CC[C@H](/C=C/[C@@H](C)[C@@H]4CC(C)=C[C@@]5(O[C@H](C[C@@](C)(O)C(=O)O)CC[C@H]5O)O4)O3)CC[C@H]2O[C@@H]1[C@@H](O)C[C@H](C)[C@H]1O[C@@]2(CCCCO2)CC[C@H]1C` [okadaic acid]: under setting [1], the “S727 phosphorylation of STAT3” value is on record as “increased S727 phosphorylation of STAT3 in a dose-dependent manner”. In the case of `CCCCCCCCCCCCCC=CC(O)C(CO)NC(=O)CCCCC` (stereo not drawn) [ceramide C6], the “S727 phosphorylation of STAT3” value (CCS spheroid culture-enriched TICs, 50 nM ceramide C6 for 24 hours) is on record as “reduced S727 phosphorylation of STAT3”. Turning to `COC[C@@H]([C@H](O)[C@H](O)C(=O)NCC[C@H](C)c1nc(/C=C/C[C@@H]2O[C@]3(C[C@@H](O)[C@@H]2C)O[C@H]([C@H](C[C@H](O)[C@H](C)[C@H](O)[C@H](C)/C=C(C)/C(C)=C/C=C/C(C)=C\C#N)OC)[C@H](OP(=O)(O)O)C3(C)C)co1)N(C)C` [calyculin A], under setting [1], the “S727 phosphorylation of STAT3” value is on record as “increased S727 phosphorylation of STAT3 in a dose-dependent manner”.
